From paper PMC10191619, “Bilirubin gates the TRPM2 channel as a direct agonist to exacerbate ischemic brain damage” (Neuron, 2023)

Biological target: T1, human TRPM2 (hTRPM2) channel (Homo sapiens, UniProt O94759)
T1 construct: expressed in transfected cells; host or cells: HEK293 cells with tetracycline-inducible expression of hTRPM2 (HEK-hTRPM2)
Test: Single-channel outside-out recordings from HEK-hTRPM2 cells
Format: cell-based
Settings: FFA co-application, n = 12
Protocol: Human embryonic kidney 293 (HEK293) cells with tetracycline-inducible expression of human TRPM2 channel (hTRPM2) were cultured in a mixed medium containing DMEM/ F-12 (Gibco, USA) and 10% fetal bovine serum (Gibco, USA) as well as blasticidin (50 μg/ml, Invivogen, USA) and zeocin (0.4 mg/ml, Invivogen, USA). The expression of hTRPM2 was induced by substituting blasticin and zeocin for tetracycline (1 μg/ml, Sigma, USA) 24-48 hours before use. TRPM2 channel mutants were transiently expressed in HEK293T cells by transfection with using Lipofectamine 3000. Briefly, HEK293T cells were transiently transfected with cDNAs encoding the mutant hTRPM2 channel. The cDNA for GFP was co-transfected as a marker for identification of the transfected cells for electrophysiological experiments 16-24 hours after transfection. All the cells were seeded on 96-well coverslips (3 x 3 mm, WHB) and cultured at 37 °C under a humidified atmosphere containing 5% CO2.
Coronal cortical slices were transferred into the recording chamber and continuously perfused at room temperature with ACSF oxygenated with 95% O2 and 5% CO2. Cortical pyramidal neurons were visualized by an upright microscope (Carl Zeiss) equipped with a CCD monochrome video camera (IR-1000, DAGE-MTI) and identified by their localization in Layer V. Electrophysiology data were sampled (50 kHz) and lowpass filtered (5kHz four-pole Bessel filter) by a MultiClamp 700B dual channel amplifier (Molecular Devices). The patch electrodes were pulled from borosilicate capillary glass (1.5 mm outer diameter; 0.86 mm inner diameter; World Precision Instruments, USA) with a horizontal multi-step micropipette puller (Model, P-1000, Sutter Instrument). […] After forming >1 GΩ resistance seal in cell-attached configuration, we broke the patch membrane and kept the neurons at -64 mV and then performed whole-cell current-clamp recordings. Cells requiring holding current > -150 pA at -60 mV were discarded. The resting membrane potential (Vrest) was tested in I = 0 configuration. […] For whole-cell or single channel recordings from transfected HEK-293T cells, the coverslips were placed in a culture dish (35 × 35 mm, Sorfa) containing HEPES based extracellular solution (ECS) and recorded by patch-clamp technique. […] Each coverslip was recorded only once with different drug exposures. […] The excised patches were voltage-clamped from -80 mV to +80 mV (in 20 mV increasement) to generate the current-voltage (I-V) relationship of single channel currents from which their main conductance was calculated from the slope by linear regression of the mean current amplitude at different potentials. […]

T1 sequence (O94759 whole entry): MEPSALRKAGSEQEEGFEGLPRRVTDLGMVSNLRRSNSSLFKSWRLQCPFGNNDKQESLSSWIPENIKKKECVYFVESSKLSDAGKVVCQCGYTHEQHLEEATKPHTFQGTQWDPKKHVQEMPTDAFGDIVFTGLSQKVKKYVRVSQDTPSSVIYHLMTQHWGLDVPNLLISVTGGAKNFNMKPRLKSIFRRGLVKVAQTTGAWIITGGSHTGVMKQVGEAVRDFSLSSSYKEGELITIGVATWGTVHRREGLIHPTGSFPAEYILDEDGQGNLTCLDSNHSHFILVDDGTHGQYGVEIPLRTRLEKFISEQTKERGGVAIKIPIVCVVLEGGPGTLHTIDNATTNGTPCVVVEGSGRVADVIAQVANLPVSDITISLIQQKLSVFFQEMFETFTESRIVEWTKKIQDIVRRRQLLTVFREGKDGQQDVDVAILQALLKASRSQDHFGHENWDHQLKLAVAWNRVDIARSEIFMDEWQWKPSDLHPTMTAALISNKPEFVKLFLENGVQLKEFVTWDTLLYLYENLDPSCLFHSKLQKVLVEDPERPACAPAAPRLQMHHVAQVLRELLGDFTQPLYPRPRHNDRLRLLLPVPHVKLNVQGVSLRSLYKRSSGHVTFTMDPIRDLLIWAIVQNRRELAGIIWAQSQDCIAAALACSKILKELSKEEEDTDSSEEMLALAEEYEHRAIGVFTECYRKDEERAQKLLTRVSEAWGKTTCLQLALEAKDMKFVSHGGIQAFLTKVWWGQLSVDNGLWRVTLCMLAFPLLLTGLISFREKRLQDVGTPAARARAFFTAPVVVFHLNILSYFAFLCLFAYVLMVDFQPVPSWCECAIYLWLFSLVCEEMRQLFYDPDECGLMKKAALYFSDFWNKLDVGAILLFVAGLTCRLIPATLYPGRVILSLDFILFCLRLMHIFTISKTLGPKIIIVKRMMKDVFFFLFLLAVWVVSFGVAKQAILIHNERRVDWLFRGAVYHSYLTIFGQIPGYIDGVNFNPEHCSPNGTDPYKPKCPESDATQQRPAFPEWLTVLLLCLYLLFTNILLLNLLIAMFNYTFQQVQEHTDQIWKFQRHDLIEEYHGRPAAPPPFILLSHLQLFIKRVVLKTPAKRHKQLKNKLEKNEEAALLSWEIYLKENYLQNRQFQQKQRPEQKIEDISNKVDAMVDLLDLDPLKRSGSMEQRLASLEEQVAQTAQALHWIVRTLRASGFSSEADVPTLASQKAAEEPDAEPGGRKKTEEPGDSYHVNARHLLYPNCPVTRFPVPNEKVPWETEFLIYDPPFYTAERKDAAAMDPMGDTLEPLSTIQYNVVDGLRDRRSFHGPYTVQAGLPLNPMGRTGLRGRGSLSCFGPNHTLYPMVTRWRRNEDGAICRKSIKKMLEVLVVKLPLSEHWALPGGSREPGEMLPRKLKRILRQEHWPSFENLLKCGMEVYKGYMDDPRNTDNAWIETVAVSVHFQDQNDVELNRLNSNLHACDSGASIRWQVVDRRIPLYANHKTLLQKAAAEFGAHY

bilirubin-increased opening probability (Po): reversed
SMILES: O=C(O)c1ccccc1Nc1cccc(C(F)(F)F)c1 [FFA, flufenamic acid]
